Patent publication US7179814B2, “Agents for controlling plant pests” (priority 1998, dated 2007)

Assays:
[1] = system: Diabrotica balteata larvae in soil; assay: Critical concentration test/soil insects, Diabrotica balteata; type: in vivo; conditions: Diabrotica balteata, 168 h, 7 days after infestation, read-out: Kill in %
Description: (§1) To produce a suitable preparation of active compound, 1 part by weight of the active compound or the active compound mixture is mixed with the stated amounts of solvent and emulsifier, and the concentrate is diluted with water to the desired concentration.
(§2) The active compound preparation is mixed intimately with soil. Here, the concentration of the active compound in the preparation is almost irrelevant; only the amount by weight of active compound or active compound mixture per volume unit of soil, which is stated in ppm (mg/l), matters.
Soil is filled into 0.5 l pots and these are allowed to stand at 20° C. Immediately after preparation, 5 pre-germinated maize corns are placed into each pot. After 2 days, the test insects are placed into the treated soil. After a further 7 days, the kill in % is determined. 100% means that all test insects have been killed; 0% means that none of the test insects have been killed.

[2] = system: Sphaerotheca fuliginea; assay: Sphaerotheca test (cucumber)/protective; type: in vivo; conditions: 10 g/ha, single active compound, 10 days after inoculation
Description: (§3) To produce a suitable preparation of active compound, 1 part by weight of active compound or active compound combination is mixed with the stated amounts of solvent and emulsifier, and the concentrate is diluted with water to the desired concentration, or a commercial formulation of active compound or active compound combination is diluted with water to the desired concentration.
To test for protective activity, young plants are sprayed with the commercial active compound preparation at the stated application rate. After the spray coating has dried on, the plants are inoculated with an aqueous spore suspension of Sphaerotheca fuliginea. The plants are then placed in a greenhouse at approximately 23° C. and a relative atmospheric humidity of approximately 70%.
Evaluation is carried out 10 days after the inoculation. 0% means an efficacy which corresponds to that of the control, whereas an efficacy of 100% means that no infection is observed.

[3] = system: Fusarium culmorum; assay: Fusarium culmorum test (wheat)/seed treatment; type: in vivo; conditions: 75 g/ha, dry seed dressing, approximately 3 weeks after sowing
Description: The active compounds are applied as a dry dressing. They are prepared by extending the active compound in question with ground minerals to give a finely pulverulent mixture which ensures even distribution on the surface of the seeds.
For the dressing, the infected seeds are shaken with the dressing in a closed glass bottle for 3 minutes.
2×100 seeds of the wheat are sown at a depth of 1 cm into standard soil, and the wheat is cultivated in a greenhouse at a temperature of approximately 18° C. and at a relative atmospheric humidity of approximately 95% in seed containers receiving 15 hours of light per day.
The evaluation of the plants for symptoms is carried out approximately 3 weeks after sowding. 0% means an efficacy which corresponds to that of the control, whereas an efficacy of 100% means that no infection is observed.

[4] = system: Pyrenophora teres; assay: Pyrenophora teres test (barley)/protective; type: in vivo; conditions: single active compound
Description: as §3
To test for protective activity, young plants are sprayed with the active compound preparation at the stated application rate. After the spray coating has dried on, the plants are sprayed with a conidia suspension of Pyrenophora teres. The plants remain in an incubation cabin at 20° C. and 100% relative atmospheric humidity for 48 hours.
The plants are then placed in a greenhouse at a temperature of approximately 20° C. and a relative atmospheric humidity of approximately 80%.
Evaluation is carried out 7 days after the inoculation. 0% means an efficacy which corresponds to that of the control, whereas an efficacy of 100% means that no infection is observed.

[5] = system: green peach aphid; assay: Myzus test (cabbage leaf dip); type: in vivo, Myzus (green peach aphid); conditions: concentration 0.00016 %
Description: (§4) To produce a suitable preparation of active compound, 1 part by weight of an active compound or an active compound combination is mixed with the stated amounts of solvent and emulsifier, and the concentrate is diluted with water to the desired concentration.
Cabbage leaves (Brassica oleracea) which are heavily infested by the green peach aphid are treated by being dipped into the active compound preparation of the desired concentration.
After the desired period of time, the kill in % is determined. 100% means that all aphids have been killed; 0% means that none of the aphids have been killed.

[6] = system: Heliothis virescens caterpillars; assay: Heliothis virescens test (soya bean shoot dip); type: in vivo; conditions: concentration 0.00016 %
Description: as §4
Soya bean shoots (Glycine max) are treated by being dipped into the active compound preparation of the desired concentration and are populated with Heliothis virescens caterpillars while the leaves are still moist.
After the desired period of time, the kill in % is determined. 100% means that all caterpillars have been killed; 0% means that none of the caterpillars have been killed.

[7] = system: green rice leaf hopper (Nephotettix cincticeps); assay: Nephotettix test (rice seedling dip); type: in vivo
Description: as §4
Rice seedlings (Oryza sativa) are treated by being dipped into the active compound preparation of the desired concentration and are populated with the green rice leaf hopper (Nephotettix cincticeps) while the leaves are still moist.
After the desired period of time, the kill in % is determined. 100% means that all the leaf hoppers have been killed; 0% means that none of the leaf hoppers have been killed.

[8] = system: Phaedon cochleariae larvae; assay: Critical concentration test/root-systemic action, Phaedon cochleariae; type: in vivo; conditions: 72 h, root-systemic, 3 days after infestation, read-out: Kill in %
Description: as §1, §2
Soil is filled into 250 ml pots and these are planted with cabbage (Brassica oleracea). The active compound or the active compound combination can thus be taken up by the plant roots from the soil and transported into the leaves.
After 7 days, the leaves are populated with the abovementioned test animals. After a further 3 days, the kill in % is determined. 100% means that all test insects have been killed; 0% means that the number of insects which are still alive is the same as in the untreated control.

[9] = system: caterpillars of the diamondback moth (Plutella xylostella); assay: Plutella test (cabbage leaf dip); type: in vivo
Description: as §4
Cabbage leaves (Brassica oleracea) are treated by being dipped into the preparation of active compound of the desired concentration and are populated with caterpillars of the diamondback moth (Plutella xylostella) while the leaves are still moist.
After the desired period of time, the kill in % is determined 100% means that all caterpillars have been killed; 0% means that none of the caterpillars have been killed.

[10] = system: Botrytis cinerea; assay: Botrytis test (bean)/protective; type: in vivo; conditions: single active compound
Description: as §3
To test for protective activity, young plants are sprayed with the active compound preparation at the stated application rate. After the spray coating has dried on, 2 small pieces of agar colonized by Botrytis cinerea are placed onto each leaf. The inoculated plants are placed in a dark chamber at approximately 20° C. and 100% relative atmospheric humidity.
2 days after the inoculation, the size of the disease spots on the leaves is evaluated. 0% means an efficacy which corresponds to that of the control, whereas an efficacy of 100% means that no infection is observed.

N#C/N=C1/SCCN1Cc1ccc(Cl)nc1 [formula (I)]
pest or weed control at 1.25 ppm ([1]; 1.25 ppm in soil): 0% | pest or weed control at 2.5 ppm ([1]; 2.50 ppm in soil): 40% | pest or weed control at 5 ppm ([1]; 5.00 ppm in soil): 90% | Efficacy in % [2]: 0% | Efficacy in % [3]: 0% | Efficacy in % calculated/found ([4]; 18.75 g/ha): 20% | Efficacy in % calculated/found ([4]; 62.5 g/ha, 7 days after inoculation): 0% | Kill in % [5]: 25% | Kill in % [6]: 15% | Kill in % ([7]; concentration 0.000032 %): 0% | Kill in % ([7]; concentration 0.00016 %): 35% | pest or weed control at 2.5 ppm ([8]; 2.50 ppm in soil): 0% | pest or weed control at 5 ppm ([8]; 5.00 ppm in soil): 80% | pest or weed control at 10 ppm ([8]; 10.00 ppm in soil): 95% | Kill in % ([9]; concentration 0.0008 %): 0% | Kill in % ([9]; concentration 0.004 %): 60% | Efficacy in % ([10]; 10 g/ha, 2 days after inoculation): 0% | Efficacy in % ([10]; 40 g/ha): 0% | Efficacy in % ([10]; 500 g/ha): 0%
